Converted amounts (≈) assume the structure as drawn.
Columns and labels:
[1] = biological target: T1, Neuropeptide Y receptor type 5 (Homo sapiens, UniProt Q15761); assay: Displacement of [125I]PYY from human NPY5 receptor transfected in LM(tk-) cell membranes after 120 mins by solid scintillation counting
T1 sequence (Q15761 whole entry): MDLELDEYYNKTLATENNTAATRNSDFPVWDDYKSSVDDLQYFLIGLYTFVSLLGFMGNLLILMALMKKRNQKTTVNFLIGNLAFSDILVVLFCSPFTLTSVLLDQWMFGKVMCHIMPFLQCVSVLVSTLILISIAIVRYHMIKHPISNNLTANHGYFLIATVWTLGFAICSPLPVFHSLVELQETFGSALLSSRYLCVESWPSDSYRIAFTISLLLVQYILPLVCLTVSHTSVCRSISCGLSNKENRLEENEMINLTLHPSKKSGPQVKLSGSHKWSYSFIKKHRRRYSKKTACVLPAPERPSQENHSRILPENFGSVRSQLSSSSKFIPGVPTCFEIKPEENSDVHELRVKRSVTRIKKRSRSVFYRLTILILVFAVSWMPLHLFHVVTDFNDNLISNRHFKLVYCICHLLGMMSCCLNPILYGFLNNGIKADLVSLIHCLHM

[2] = Ratio of drug level in brain to plasma in femoral artery cannulated Sprague-Dawley rat at 10 mg/kg, po after 1 hr by LC/MS/MS analysis; format: ADME, organism-based; set-up: dose 10 mg/kg, route oral; conditions: read-out: BPR
[3] = Plasma concentration in femoral artery cannulated Sprague-Dawley rat at 10 mg/kg, po after 1 hr by LC/MS/MS analysis; format: ADME, organism-based; set-up: dose 10 mg/kg, route oral
[4] = Drug uptake in femoral artery cannulated Sprague-Dawley rat brain at 10 mg/kg, po after 1 hr by LC/MS/MS analysis; format: ADME, organism-based; set-up: dose 10 mg/kg, route oral; conditions: read-out: Drug uptake
[5] = test system: Liver microsome; assay: Intrinsic clearance in human pooled liver microsomes at 1 uM by LC/MS analysis; format: ADME
[6] = test system: Liver microsome; assay: Intrinsic clearance in rat pooled liver microsomes at 1 uM by LC/MS analysis; format: ADME
[7] = Solubility of the compound at pH 7.4 by classic shake flask method; format: physicochemical; conditions: buffer
[8] = Oral bioavailability in Sprague-Dawley rat at 2 mg/kg by LC/MS analysis; format: ADME, organism-based; conditions: in vivo
[9] = test system: Rattus norvegicus; assay: AUC (0 to infinity) in Sprague-Dawley rat at 2 mg/kg, po by LC/MS analysis; format: ADME, organism-based, Plasma; set-up: time infinity, dose 2 mg/kg, route oral; conditions: in vivo
[10] = Clearance in Sprague-Dawley rat at 1 mg/kg, iv and 2 mg/kg, po by LC/MS analysis; format: ADME, organism-based; conditions: in vivo
[11] = Volume of distribution at steady state in Sprague-Dawley rat at 1 mg/kg, iv and 2 mg/kg, po by LC/MS analysis; format: ADME, organism-based; conditions: in vivo, read-out: Vdss
[12] = Half life in Sprague-Dawley rat at 1 mg/kg, iv and 2 mg/kg, po by LC/MS analysis; format: ADME, organism-based; conditions: in vivo

| Compound | Ki [1] [nM] | Kp at 1 h [2] | concentration at 1 h [3] [nM] | concentration at 1 h [4] [nM] | CLH [5] [L/min] | CLH [6] [mL/min] | solubility thermodynamic [7] [µg/mL] | bioavailability [8] [%] | AUC [9] [ng·h/mL] | clearance [10] [mL/min/kg] | Vd [11] [L/kg] | half-life [12] [h] |
| --- | --- | --- | --- | --- | --- | --- | --- | --- | --- | --- | --- | --- |
| CN(c1ccc(-c2cc(F)cc(F)c2)cn1)C(=O)[C@H]1CC[C@@H](N2CCCC2=O)CC1 | > 10000 |  |  |  |  |  |  |  |  |  |  |  |
| O=C1CCCN1[C@H]1CC[C@@H](C(=O)Nc2ncc(-c3cc(F)cc(F)c3)cn2)CC1 | 5 | 0.14 | 2800 | 380 | 0.7 | 31 | 38 (≈ 94.9 µM) |  |  |  |  |  |
| O=C1CCCN1[C@H]1CC[C@@H](C(=O)Nc2cnc(-c3cc(F)cc(F)c3)cn2)CC1 | 6 |  |  |  | 0.9 | 9.5 |  |  |  |  |  |  |
| O=C1CCCCN1[C@H]1CC[C@@H](C(=O)Nc2ccc(-c3cc(F)cc(F)c3)cn2)CC1 | 2 |  |  |  |  |  |  |  |  |  |  |  |
| O=C1OCCN1[C@H]1CC[C@@H](C(=O)Nc2ccc(-c3cc(F)cc(F)c3)cn2)CC1 |  | 0.5 | 3000 | 1500 | 0.4 | 9.5 | 4 (≈ 9.96 µM) | 83 | 2000 | 14.2 | 3.4 | 2.8 |
| C[C@@H]1CN([C@H]2CC[C@@H](C(=O)Nc3ccc(-c4cc(F)cc(F)c4)cn3)CC2)C(=O)O1 | 3 |  |  |  | 0.9 | 7 |  |  |  |  |  |  |
| C[C@H]1CN([C@H]2CC[C@@H](C(=O)Nc3ccc(-c4cc(F)cc(F)c4)cn3)CC2)C(=O)O1 | 7 |  |  |  | 1.1 | 15 |  |  |  |  |  |  |
| O=C1NCCN1[C@H]1CC[C@@H](C(=O)Nc2ccc(-c3cc(F)cc(F)c3)cn2)CC1 | 5 | 0.2 | 6800 | 1400 | 1.7 | 37 | 4.5 (≈ 11.2 µM) |  |  |  |  |  |
| CN1CCN([C@H]2CC[C@@H](C(=O)Nc3ccc(-c4cc(F)cc(F)c4)cn3)CC2)C1=O | 5 | 0.6 | 5000 | 3100 | 0.8 | 8.8 | 1.1 (≈ 2.65 µM) | 110 | 4100 | 9.5 | 2.8 | 3.5 |
| O=C1NCCCN1[C@H]1CC[C@@H](C(=O)Nc2ccc(-c3cc(F)cc(F)c3)cn2)CC1 |  |  |  |  | 1.1 | 18 | 1.3 (≈ 3.14 µM) |  |  |  |  |  |
| CN1CCCN([C@H]2CC[C@@H](C(=O)Nc3ccc(-c4cc(F)cc(F)c4)cn3)CC2)C1=O |  |  |  |  | 1.1 | 19 | 5.4 (≈ 12.6 µM) |  |  |  |  |  |
| CCN1CCN([C@H]2CC[C@@H](C(=O)Nc3ccc(-c4cc(F)cc(F)c4)cn3)CC2)C1=O | 10 |  |  |  | 1.6 | 17 | 1.6 (≈ 3.73 µM) |  |  |  |  |  |
| CC(C)N1CCN([C@H]2CC[C@@H](C(=O)Nc3ccc(-c4cc(F)cc(F)c4)cn3)CC2)C1=O | 41 |  |  |  |  |  |  |  |  |  |  |  |
| O=C1N(C2CC2)CCN1[C@H]1CC[C@@H](C(=O)Nc2ccc(-c3cc(F)cc(F)c3)cn2)CC1 | 9 |  |  |  | 1 | 8.4 |  |  |  |  |  |  |
| O=C1CCCN1[C@H]1CC[C@@H](C(=O)Nc2ccc(-c3cc(F)cc(F)c3)cn2)CC1 | 8 | 1 | 2800 | 2800 | 1 | 12 | 0.7 (≈ 1.75 µM) | 110 | 4300 | 8.67 | 3.2 | 4.4 |
| CC(C)(C)C1CN([C@H]2CC[C@@H](C(=O)Nc3ccc(-c4cc(F)cc(F)c4)cn3)CC2)C(=O)O1 (mixture of isomers) | 4 |  |  |  | 3.9 | 25 |  |  |  |  |  |  |

Reference: ChEMBL document CHEMBL3124873, “cis-1-Oxo-heterocyclyl-4-amido cyclohexane derivatives as NPY5 receptor antagonists” (Bioorg Med Chem Lett, 2014)
